Test results reported in ChEMBL document CHEMBL1153815, “Mapping the ribonucleolytic active site of bovine seminal ribonuclease. The binding of pyrimidinyl phosphonucleotide inhibitors” (Eur J Med Chem, 2009).
pKi: −log10 of the molar value. Calls of active or inactive are those of the source. The calls are words filed in the database; no cut-off is given here.

Columns and labels:
Ribonuclease pancreatic = target: T1, Ribonuclease pancreatic (Bos taurus, UniProt P61823); test: Inhibition of bovine pancreatic ribonuclease A assessed as enzyme activity by spectrophotometric method pH 6
T1 sequence (P61823 whole entry): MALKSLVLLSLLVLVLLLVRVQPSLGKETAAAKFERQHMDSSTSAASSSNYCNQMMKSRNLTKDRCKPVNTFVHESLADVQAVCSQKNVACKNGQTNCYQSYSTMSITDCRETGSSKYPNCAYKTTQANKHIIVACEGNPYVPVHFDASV

Mus musculus [1] = test: Inhibition of aspermatogenic activity of bovine seminal ribonuclease in mouse ICR assessed as diameter of somniferous tubule at 1:100 ratio of BS-Rnase+compound after 10 days administered once into left testes; type: functional, organism-based
Mus musculus [2] = test: Inhibition of aspermatogenic activity of bovine seminal ribonuclease in mouse ICR assessed as weight of the testes at 1:100 ratio of BS-Rnase+compound after 10 days administered once into left testes; type: functional, organism-based; conditions: Testis
Mus musculus [3] = test: Inhibition of aspermatogenic activity of bovine […] assessed as weight of the testes at 1:1 ratio of BS-Rnase+compound after 10 days administered once into left testes; type: functional, organism-based; conditions: Testis
Mus musculus [4] = test: Inhibition of aspermatogenic activity of bovine seminal ribonuclease in mouse ICR assessed as width of spermatogenic layer at 1:100 ratio of BS-Rnase+compound after 10 days administered once into left testes; type: functional, organism-based
Mus musculus [5] = test: Inhibition of aspermatogenic activity of bovine […] assessed as width of spermatogenic layer at 1:100 ratio of BS-Rnase+compound after 10 days administered once into left testes; type: functional, organism-based
Mus musculus [6] = test: Inhibition of aspermatogenic activity of bovine […] assessed as diameter of somniferous tubule at 1:100 ratio of BS-Rnase+compound after 10 days administered once into left testes; type: functional, organism-based
Seminal ribonuclease = target: T2, Seminal ribonuclease (Bos taurus, UniProt P00669); test: Inhibition of bovine seminal ribonuclease assessed as enzyme activity by spectrophotometric method at pH 6
T2 sequence (P00669 whole entry): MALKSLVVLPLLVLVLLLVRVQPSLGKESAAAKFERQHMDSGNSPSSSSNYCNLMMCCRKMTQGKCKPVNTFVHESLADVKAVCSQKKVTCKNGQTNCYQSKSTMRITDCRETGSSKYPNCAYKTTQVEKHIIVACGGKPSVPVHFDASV

Mus musculus [7] = test: Inhibition of aspermatogenic activity of bovine seminal ribonuclease in mouse ICR assessed as width of spermatogenic layer at 1:1 ratio of BS-Rnase+compound after 10 days administered once into left testes; type: functional, organism-based
Mus musculus [8] = test: Inhibition of aspermatogenic activity of bovine seminal ribonuclease in mouse ICR assessed as weight of the testes at 1:1 ratio of BS-Rnase+compound after 10 days administered once into left testes; type: functional, organism-based; conditions: Testis
Mus musculus [9] = test: Inhibition of aspermatogenic activity of bovine seminal ribonuclease in mouse ICR assessed as diameter of somniferous tubule at 1:1 ratio of BS-Rnase+compound after 10 days administered once into left testes; type: functional, organism-based

pKi (Ribonuclease pancreatic)	Activity (Mus musculus [1])	Activity (Mus musculus [2])	Activity (Mus musculus [4])	other results	Compound
3.19					O=c1ccn([C@@H]2O[C@H](COP(=O)(O)OP(=O)(O)O)[C@@H](O)[C@H]2O)c(=O)[nH]1 [URIDINE_DIPHOSPHATE]
3.07	inactive	inactive	inactive	Activity (Mus musculus [3]): Active; Activity (Mus musculus [5]): Active; Activity (Mus musculus [6]): Active; pKi (Seminal ribonuclease): 2.81	Nc1ccn([C@@H]2O[C@H](COP(=O)(O)O)[C@@H](O)[C@H]2O)c(=O)n1
4.70	inactive	inactive	inactive	Activity (Mus musculus [7]): Active; Activity (Mus musculus [8]): Active; Activity (Mus musculus [9]): Active	Nc1ccn([C@@H]2O[C@H](CO)[C@@H](OP(=O)(O)O)[C@H]2O)c(=O)n1
4.11					O=c1ccn([C@@H]2O[C@H](CO)[C@@H](OP(=O)(O)O)[C@H]2O)c(=O)[nH]1
4.94					O=c1ccn([C@@H]2O[C@H](CO)[C@@H](O)[C@H]2OP(=O)(O)O)c(=O)[nH]1
